For one assay, the system named is Mus musculus. The assay is described as follows: Potentiation of 20 mg/kg, ip bid for 8 days furosemide-induced chronic diuretic action in CD1 mouse assessed as increase in urine volume at 10 mg/kg, ip measured at 3 hrs relative to control. In kind it is functional.
The target of assay [1] is T1, Solute carrier family 12 member 2 (Homo sapiens) (UniProt P55011).
T1 sequence (whole entry): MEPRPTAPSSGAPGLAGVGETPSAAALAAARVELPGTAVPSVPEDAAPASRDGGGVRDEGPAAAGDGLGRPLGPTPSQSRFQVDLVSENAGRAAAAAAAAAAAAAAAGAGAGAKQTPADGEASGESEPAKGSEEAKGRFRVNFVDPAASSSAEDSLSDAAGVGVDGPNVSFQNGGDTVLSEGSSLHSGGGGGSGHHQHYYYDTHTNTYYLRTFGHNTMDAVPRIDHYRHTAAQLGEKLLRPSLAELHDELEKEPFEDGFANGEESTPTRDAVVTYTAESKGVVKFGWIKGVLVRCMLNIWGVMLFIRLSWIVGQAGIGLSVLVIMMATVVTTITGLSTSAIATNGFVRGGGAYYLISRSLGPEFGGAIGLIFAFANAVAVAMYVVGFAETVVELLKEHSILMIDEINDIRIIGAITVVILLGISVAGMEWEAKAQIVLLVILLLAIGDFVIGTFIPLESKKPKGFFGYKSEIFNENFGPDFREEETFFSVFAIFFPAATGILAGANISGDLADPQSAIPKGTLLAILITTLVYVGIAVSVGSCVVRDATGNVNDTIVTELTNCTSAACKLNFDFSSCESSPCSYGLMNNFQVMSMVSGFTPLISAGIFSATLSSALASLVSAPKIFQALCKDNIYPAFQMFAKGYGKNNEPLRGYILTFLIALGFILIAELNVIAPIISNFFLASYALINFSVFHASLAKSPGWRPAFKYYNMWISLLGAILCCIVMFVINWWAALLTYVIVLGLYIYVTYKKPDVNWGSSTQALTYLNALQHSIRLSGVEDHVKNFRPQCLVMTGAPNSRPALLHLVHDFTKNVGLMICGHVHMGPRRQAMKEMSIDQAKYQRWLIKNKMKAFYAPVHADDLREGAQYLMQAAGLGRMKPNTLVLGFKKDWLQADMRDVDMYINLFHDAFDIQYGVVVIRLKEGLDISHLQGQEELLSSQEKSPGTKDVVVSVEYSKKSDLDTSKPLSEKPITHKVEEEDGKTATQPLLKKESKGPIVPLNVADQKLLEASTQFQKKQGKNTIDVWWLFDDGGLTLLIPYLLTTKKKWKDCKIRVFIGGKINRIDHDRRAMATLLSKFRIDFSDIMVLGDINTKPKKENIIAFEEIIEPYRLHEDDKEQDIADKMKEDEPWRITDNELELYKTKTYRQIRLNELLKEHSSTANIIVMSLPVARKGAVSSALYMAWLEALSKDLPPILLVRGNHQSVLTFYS
The assay is described as follows: Inhibition of NKCC1 in human bronchial epithelial cells assessed as effect on short-circuit current at 25 uM pre-incubated for 30 mins.

For a further assay, the target named is T2, Pendrin (Homo sapiens, UniProt O43511).
T2 sequence (O43511 whole entry): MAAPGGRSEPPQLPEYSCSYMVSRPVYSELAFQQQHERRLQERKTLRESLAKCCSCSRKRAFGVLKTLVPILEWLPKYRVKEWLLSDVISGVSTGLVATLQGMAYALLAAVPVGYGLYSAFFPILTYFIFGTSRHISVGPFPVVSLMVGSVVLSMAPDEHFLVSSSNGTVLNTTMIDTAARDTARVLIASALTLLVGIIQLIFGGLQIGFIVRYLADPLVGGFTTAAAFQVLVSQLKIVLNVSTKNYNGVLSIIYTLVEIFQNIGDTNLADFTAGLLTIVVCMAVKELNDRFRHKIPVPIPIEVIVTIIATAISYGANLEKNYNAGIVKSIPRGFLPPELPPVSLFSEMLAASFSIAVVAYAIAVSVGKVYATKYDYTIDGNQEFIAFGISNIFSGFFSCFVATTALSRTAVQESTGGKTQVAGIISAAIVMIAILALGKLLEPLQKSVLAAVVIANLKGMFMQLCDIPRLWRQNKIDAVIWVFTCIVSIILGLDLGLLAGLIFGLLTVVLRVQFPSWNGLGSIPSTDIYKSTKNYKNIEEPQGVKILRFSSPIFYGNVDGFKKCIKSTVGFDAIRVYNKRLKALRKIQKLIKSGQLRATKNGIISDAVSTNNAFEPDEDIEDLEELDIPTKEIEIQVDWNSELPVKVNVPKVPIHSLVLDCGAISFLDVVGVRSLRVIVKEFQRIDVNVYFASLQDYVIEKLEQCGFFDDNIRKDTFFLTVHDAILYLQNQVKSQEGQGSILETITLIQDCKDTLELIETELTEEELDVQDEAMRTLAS
The assay is described as follows: Inhibition of human pendrin expressed in FRT cells co-expressing EYFP-HIF assessed as reduction in pendrin-mediated C17NO3(-) exchange incubated for 10 mins by pH-sensitive fluorescent probe BCECF-AM based fluorescence assay relative to control. In kind it is cell-based.

The text below walks through data of ChEMBL document CHEMBL4417636, “Small molecule inhibitors of pendrin ion exchange and pharmaceutical compositions” (2017).

By pIC50 is commonly meant the IC50 on a negative log10 scale, so that one unit is a factor of ten.

Molecules are shown by their SMILES. pIC50: −log10 of the molar value. Active and inactive are the calls of the source. The rule behind the calls is not given here.

Turning to `Cn1nc(COc2cccc(F)c2)c2c1CCN(C(=O)Nc1ccc(Cl)cc1)C2`, in the assay on Mus musculus, the Activity is listed as 60%. Also, the inhibition result in assay [1] was “inactive”.
`Cc1n[nH]c(-c2cc(S(=O)(=O)NC3CCCc4ccccc43)c(C)s2)c1C` (stereo not drawn): the negative logarithm of the IC50 (pIC50) on Pendrin is 5.30.
